Experiment: Temperature cycling / physical stability of solvents, systems and formulations
Assay type: physicochemical
Procedure: Temperature Cycling of Selected Solvents and Solubility Systems was studied. Systems were prepared at ambient temperature, with mixed solvent in the weight ratios reported in brackets. Mitotane, 0.25 grams, was then added to 1 gram of each solvent or solvent mixture. Samples were placed in the refrigerator (5° C.±3° C.) and observations were recorded. The samples were then left at ambient temperature for 24 hours, and observations recorded. The samples were then placed in a 40° C. oven, and final observation was made after another 24 hours. These observations are recorded in the table below.
Based on these studies, several formulations were prepared (see Tables 10 and 11). Temperature cycling was tested to evaluate the physical stability of the three formulations F-2772-054 (33.3% drug w/w), F-2772-055 (20.0% drug w/w), and F-2772-057 (33.3% drug w/w) as well as formulations F-2772-054 and 057 at 28.5% drug w/w. […] Temperature cycling consisted of three stages for 24 hour periods; refrigeration (5° C.), 40° C. conventional oven, and room temperature. After each 24 hour cycle, solutions were evaluated for clarity.

Highest mitotane concentration trial found to be the most stable: 28.5 % weight/weight | Highest most stable mitotane concentration expressed as drug loading (28.5/(100-28.5)): 40 % drug loading
SMILES: Clc1ccc(C(c2ccccc2Cl)C(Cl)Cl)cc1 (centres unmarked) [mitotane, Mitotane]

Reference: US9770509B2, “Self micro-emulsifying drug delivery system with increased bioavailability” (Pharmaceutics International, Inc., priority 2010, dated 2017)
